In patent EP1954678B1, “NOVEL NK1 AND NK2 ANTAGONISTS” (Abbott Products GmbH, priority 2005, dated 2007):

Target: T1, cloned human NK1 receptors (Homo sapiens, UniProt P25103)
T1 construct: expressed in transfected cells
Experiment: Ca2+ measurements using FLIPR for NK1 activity in CHO cells
Type: cell-based
Conditions: substance P 10^-8 M as agonist; compound applied 7 min before; pA2 calculated from IC50
From the text: The NK receptor is coupled to Gq.
All steps were done under sterile conditions. […] The results are summarized in table 5: Table 5: pA2 data for NK1 and NK2: […]

T1 sequence (P25103 whole entry): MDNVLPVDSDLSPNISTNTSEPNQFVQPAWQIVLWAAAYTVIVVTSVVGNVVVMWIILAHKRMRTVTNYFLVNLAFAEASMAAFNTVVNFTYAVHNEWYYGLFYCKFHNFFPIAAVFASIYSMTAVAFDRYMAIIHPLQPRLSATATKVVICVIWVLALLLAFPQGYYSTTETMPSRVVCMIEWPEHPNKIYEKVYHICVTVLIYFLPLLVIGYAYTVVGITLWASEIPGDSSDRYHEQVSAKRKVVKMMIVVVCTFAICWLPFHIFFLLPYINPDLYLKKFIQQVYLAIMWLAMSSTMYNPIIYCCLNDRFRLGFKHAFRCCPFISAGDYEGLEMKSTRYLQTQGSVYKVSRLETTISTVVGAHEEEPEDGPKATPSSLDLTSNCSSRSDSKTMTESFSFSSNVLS

Kb: 1.26 nM
Compound: CN(C[C@@H](CCN1CCN([C@@H](c2ccco2)[C@H](O)CO)CC1)c1ccc(Cl)c(Cl)c1)C(=O)c1cc(C#N)cc2ccccc12 [Compound 1, 3-cyano-N-[(2S)-2-(3,4-dichlorophenyl)-4-{4-[(1R,2S)-1-(2-furyl)-2,3-dihydroxypropyl]piperazin-1-yl}butyl]-N-methyl-1-naphthamide]
